Drawing on patent US20250282799A1, “SUBSTITUTED PYRIDO[4,3-d]PYRIMIDINES AS KRAS MODULATORS” (Alterome Therapeutics, Inc., priority 2023, published 2025), this text covers IC50 for seven compounds.

Structures are written as SMILES.

In this test the test system is KRAS G12V dependent lung adenocarcinoma cell line, NCI-H441. The test can be described thus: Cellular pERK (Thr202/Tyr204) FRET/HTRF assay. Type of test: cell-based. The settings on record: Homo sapiens, NCI-H441, cellular pERK (Thr202/Tyr204) HTRF, NCI-H441 cells. The procedure, abridged:
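NCI-H441 cells (KRAS G12V) plated overnight at 37 °C, then exposed to compounds for 1 hr at 37 °C, 5% CO2; DMSO as negative control. Lysates read by Eu-cryptate/d2 sandwich FRET (665 nm) for ERK1/2 phosphorylated at Thr202/Tyr204; IC50 from curve fit.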

In turn, `[2H]C([2H])(F)Oc1c(F)c(F)cc2cccc(-c3ncc4c(N5CCCC[C@H]6[C@H](F)[C@H]65)nc(OC([2H])([2H])[C@@]56CCCN5C[C@H](F)C6)nc4c3F)c12` [Example 95, 7-(6,7-difluoro-8-(fluoromethoxy-d2)naphthalen-1-yl)-8-fluoro-4-((1S,7R,8S)-8-fluoro-2-azabicyclo[5.1.0]octan-2-yl)-2-(((2R,7aS)-2-fluorotetrahydro-1H-pyrrolizin-7a(5H)-yl)methoxy-d2)pyrido[4,3-d]pyrimidine] registered a half-inhibitory concentration (IC50) below 50 nM.

In turn, `[2H]C([2H])(Oc1nc(N2CCCC[C@H]3[C@H](F)[C@H]32)c2cnc(-c3cc(N)cc4c(F)cc(F)c(C#C)c34)c(F)c2n1)[C@@]12CCCN1C[C@H](F)C2` [Example 96, 5-ethynyl-6,8-difluoro-4-(8-fluoro-4-((1S,7R,8S)-8-fluoro-2-azabicyclo[5.1.0]octan-2-yl)-2-(((2R,7aS)-2-fluorotetrahydro-1H-pyrrolizin-7a(5H)-yl)methoxy-d2)pyrido[4,3-d]pyrimidin-7-yl)naphthalen-2-amine] registered an IC50 below 50 nM.

`[2H]C([2H])(Oc1nc(N2CCCC[C@H]3[C@H](F)[C@H]32)c2cnc(-c3cncc4ccc(F)c(C#C)c34)c(F)c2n1)[C@@]12CCCN1C[C@H](F)C2` [Example 97, 7-(5-Ethynyl-6-fluoroisoquinolin-4-yl)-8-fluoro-4-((1S,7R,8S)-8-fluoro-2-azabicyclo[5.1.0]octan-2-yl)-2-(((2R,7aS)-2-fluorotetrahydro-1H-pyrrolizin-7a(5H)-yl)methoxy-d2)pyrido[4,3-d]pyrimidine] registered a half-inhibitory concentration (IC50) below 50 nM.

In turn, `[2H]C([2H])(Oc1nc(N2CCCC[C@H]3[C@H](F)[C@H]32)c2cnc(-c3cncc4ccc(F)c(OC)c34)c(F)c2n1)[C@@]12CCCN1C[C@H](F)C2` [Example 98, 8-Fluoro-7-(6-fluoro-5-methoxyisoquinolin-4-yl)-4-((1S,7R,8S)-8-fluoro-2-azabicyclo[5.1.0]octan-2-yl)-2-(((2R,7aS)-2-fluorotetrahydro-1H-pyrrolizin-7a(5H)-yl)methoxy-d2)pyrido[4,3-d]pyrimidine] had a 50% inhibitory concentration (IC50) below 50 nM.

`[2H]C([2H])(Oc1nc(N2CCC=C[C@@H]3[C@@H](F)[C@@H]32)c2cnc(-c3cc(N)cc4cc(F)c(F)c(C#C)c34)c(F)c2n1)[C@@]12CCCN1C[C@H](F)C2` [Example 99, 5-ethynyl-6,7-difluoro-4-(8-fluoro-4-((1R,7S,8R)-8-fluoro-2-azabicyclo[5.1.0]oct-5-en-2-yl)-2-(((2R,7aS)-2-fluorotetrahydro-1H-pyrrolizin-7a(5H)-yl)methoxy-d2)pyrido[4,3-d]pyrimidin-7-yl)naphthalen-2-amine] showed an IC50 below 50 nM.

Compound `[2H]C([2H])(F)Oc1c(F)ccc2cc(N)cc(-c3ncc4c(N5CCCC[C@H]6[C@H](F)[C@H]65)nc(OC([2H])([2H])[C@@]56CCCN5C[C@H](F)C6)nc4c3F)c12` [Example 100, 6-Fluoro-4-(8-fluoro-4-((1S,7R,8S)-8-fluoro-2-azabicyclo[5.1.0]octan-2-yl)-2-(((2R,7aS)-2-fluorotetrahydro-1H-pyrrolizin-7a(5H)-yl)methoxy-d2)pyrido[4,3-d]pyrimidin-7-yl)-5-(fluoromethoxy-d2)naphthalen-2-amine] yielded an IC50 below 50 nM.

In turn, `[2H]C1([2H])OCCN(c2nc(OC([2H])([2H])[C@@]34CCCN3C[C@H](F)C4)nc3c(F)c(-c4cccc5ccc(F)c(C#C)c45)ncc23)[C@@H]2[C@@H](F)[C@@H]21` [Example 101, (1S,7S,8S)-2-(7-(8-ethynyl-7-fluoronaphthalen-1-yl)-8-fluoro-2-(((2R,7aS)-2-fluorotetrahydro-1H-pyrrolizin-7a(5H)-yl)methoxy-d2)pyrido[4,3-d]pyrimidin-4-yl)-8-fluoro-5-oxa-2-azabicyclo[5.1.0]octane-6,6-d2] came in with an IC50 below 50 nM.
